Results published in paper PMC6010112, “Resolution of co-eluting isomers of anti-inflammatory drugs conjugated to carbonic anhydrase inhibitors from plasma in liquid chromatography by energy-resolved tandem mass spectrometry” (Journal of Enzyme Inhibition and Medicinal Chemistry, 2018).

Tests used:
[1] = Chemical stability in phosphate buffer solution (spontaneous hydrolysis), LC-MS/MS; type: physicochemical; conditions: phosphate buffer solution (PBS), 1 µM analyte, 37 °C, incubation 0-120 min, read-out: T 1/2 PBS
Method: (§1) The sample was prepared adding 10 µL of spiked solution to 100 µL of tested matrix (PBS or human plasma or rat plasma) in microcentrifuge tubes. The obtained solutions correspond to 1 µM of analyte.
(§2) Each set of samples was incubated in triplicate at four different times, 0, 30, 60, and 120 min at 37 °C. Therefore, the matrix stability profile of each analyte was represented by a batch of 12 samples (4 incubation times ×3 replicates). After the incubation, the samples were added with 300 µL of ISTD solution and centrifuged (room temperature for 5 min at 800 g). The supernatants were transferred in autosampler vials and dried under a gentle stream of nitrogen.
(§3) The dried samples were dissolved in 1.0 mL of 10 mM of formic acid in mQ water:acetonitrile 80:20 solution[28].
(§4) An investigation on the chemical stability of compounds under study in PBS, human and rat plasma was performed for evaluating their susceptibility to spontaneous or enzymatic hydrolysis.
(§5) The stability profiles were obtained by monitoring the variation of analyte concentration at different incubation times in PBS or human or rat plasma samples. Generally, when the substrate concentration was smaller than the Michaelis–Menten constant (KM), the enzymatic degradation rate is described to a first-order kinetics. Therefore, plotting the natural logarithm of the quantitative data versus the incubation time, a linear function can be used and its slope represents the degradation rate constant (k).
(§6) All degradation plots of references and studied compounds were reported in the Supplemental material (SF11–SF26). The half-life of each tested compound was calculated as follows: (4) […]

[2] = Stability in human plasma (enzymatic hydrolysis), LC-MS/MS; type: in vitro ADME; conditions: 1 µM analyte, 37 °C, incubation 0-120 min; for half-life at 1 µM: male, read-out: T 1/2 Human plasma
Method: (§7) PBS was prepared by adding 8.01 g L^−1 of NaCl, 0.2 g L^−1 of KCl, 1.78 g L^−1 of Na2HPO4·2H2O, and 0.27 g L^−1 of KH2PO4. Human plasma was collected from healthy volunteer and the rat plasma was collected from Sprague-Dawley male rats; each plasma batch was kept at −80 °C until use.
as §1
as §2, with “Therefore,” for “Each set of samples was incubated in triplicate at four different times, 0, 30, 60, and 120 min at 37 °C. Therefore,”
as §3, §4, §5

[3] = Stability in rat plasma (enzymatic hydrolysis), LC-MS/MS; type: in vitro ADME, Sprague-Dawley male rats; conditions: male, Sprague-Dawley, 1 µM analyte, 37 °C, incubation 0-120 min, read-out: T 1/2 Rat plasma
Method: as §7, §1, §2, §3, §4
In order to establish the hydrolytic activity of the employed plasma batches, two reference compounds were tested, following the procedure reported in the section ‘Validation of LC-MS/MS methods’: KEE (half-life <2 h) and enalapril (half-life <0.5 h) to verify the human and rat plasma activity, respectively[32]^,[33].
as §5, §6

[4] = set-up: method as in PMID 28238510, PMID 28113128; conditions: cited from earlier work
[5] = set-up: method as in PMID 28238510, PMID 28113128; conditions: cited from earlier work; remark: listed apart in the source

Compound	half-life at 1 µM [1] [h]	half-life at 1 µM [2] [h]	half-life at 1 µM [3] [h]	T 1/2 Human plasma [2] [h]	half-life (reference compound to verify human plasma activity) [4] [h]	half-life (reference compound to verify rat plasma activity) [5] [h]
CC(C(=O)NCCOc1ccc2ccc(=O)oc2c1)c1cccc(C(=O)c2ccccc2)c1 (stereo not shown) [Compound 3B]	> 4	> 4	> 4			
CC1=C(CC(=O)NCCOc2ccc3oc(=O)ccc3c2)c2cc(F)ccc2/C1=C\c1ccc([S+](C)[O-])cc1 (stereo not shown) [Compound 2A]	> 4	> 4	> 4			
COc1ccc2cc(C(C)C(=O)NCCOc3ccc4oc(=O)ccc4c3)ccc2c1 (stereo not shown) [Compound 8A]	> 4	> 4	> 4			
COc1ccc2cc(C(C)C(=O)NCCOc3ccc4ccc(=O)oc4c3)ccc2c1 (stereo not shown) [Compound 8B]	> 4	> 4	> 4			
COc1ccc2c(c1)c(CC(=O)NCCOc1ccc3ccc(=O)oc3c1)c(C)n2C(=O)c1ccc(Cl)cc1 [Compound 1B]	> 4	> 4	> 4			
CC1=C(CC(=O)NCCOc2ccc3ccc(=O)oc3c2)c2cc(F)ccc2/C1=C\c1ccc([S+](C)[O-])cc1 (stereo not shown) [Compound 2B]	> 4	> 4	> 4			
O=C(Cc1ccccc1Nc1c(Cl)cccc1Cl)NCCOc1ccc2oc(=O)ccc2c1 [Compound 5A]	> 4	> 4	> 4			
O=C(c1ccccc1)c1ccc2n1CCC2C(=O)NCCOc1ccc2oc(=O)ccc2c1 (stereo not shown) [Compound 7A]	> 4	> 4	> 4			
O=C(Cc1ccccc1Nc1c(Cl)cccc1Cl)NCCOc1ccc2ccc(=O)oc2c1 [Compound 5B]	> 4	> 4	> 4			
CC(C(=O)NCCOc1ccc2ccc(=O)oc2c1)c1ccc(-c2ccccc2)c(F)c1 (stereo not shown) [Compound 6B]	> 4	> 4	> 4			
CC(C)Cc1ccc(C(C)C(=O)NCCOc2ccc3oc(=O)ccc3c2)cc1 (stereo not shown) [Compound 4A]	> 4	> 4	> 4			
CC(C)Cc1ccc(C(C)C(=O)NCCOc2ccc3ccc(=O)oc3c2)cc1 (stereo not shown) [Compound 4B]	> 4	> 4	> 4			
CCOC(=O)C(C)c1cccc(C(=O)c2ccccc2)c1 (stereo not shown) [KEE, Ketoprofen ethyl ester, reference compound]				1.58	< 2	
COc1ccc2c(c1)c(CC(=O)NCCOc1ccc3oc(=O)ccc3c1)c(C)n2C(=O)c1ccc(Cl)cc1 [Compound 1A]	> 4	> 4	> 4			
CC(C(=O)NCCOc1ccc2oc(=O)ccc2c1)c1ccc(-c2ccccc2)c(F)c1 (stereo not shown) [Compound 6A]	> 4	> 4	> 4			
CC(C(=O)NCCOc1ccc2oc(=O)ccc2c1)c1cccc(C(=O)c2ccccc2)c1 (stereo not shown) [Compound 3A]	> 4	> 4	> 4			
O=C(c1ccccc1)c1ccc2n1CCC2C(=O)NCCOc1ccc2ccc(=O)oc2c1 (stereo not shown) [Compound 7B]	> 4	> 4	> 4			
CCOC(=O)[C@H](CCc1ccccc1)N[C@@H](C)C(=O)N1CCC[C@H]1C(=O)O [Enalapril, enalapril, reference compound]			0.367			< 0.5
